Assay results published in patent US10213482B2, “Methods of treating chronic inflammatory diseases” (Centre National de la Recherche Scientifique, priority 2014, dated 2019).
Square brackets hold non-standard residues; d marks the D form. Ends that are not written are not given here. Peptide text beside a SMILES is read from it. Met(O) = CS(=O)CC[C@H](N)C(=O)O; pS = N[C@@H](COP(=O)(O)O)C(=O)O

Legend:
[1] = biological target: T1, Recombinant bovine HSC70 (Bos taurus, UniProt P19120); test: BIAcore binding of P140 peptides to HSC70
T1 construct: purchased Stressgen
Experimental: BIAcore 3000 system (Biacore AB) was used to evaluate the binding of P140 peptides to HSC70 protein (Page et al., 2009, and 2011). Sensor chip CMS, surfactant P20, amine coupling kit containing N-hydroxysuccinimide (NHS) and N-ethyl-N′-dimethylaminopropyl carbodiimide (EDC), 2-(2-pyridinyldithio)ethaneamine (PDEA) and ethanolamine were from Biacore AB. Biosensor assays were performed with HBS-EP buffer as running buffer (10 mM HEPES, 150 mM NaCl, 3 mM EDTA, 0.005% surfactant P20, pH 7.4). The compounds were diluted in the running buffer. The sensor chip surface was regenerated after each experiment by injecting 10 μL of 10 mM HCl. Recombinant bovine HSC70 (Stressgen) was immobilized on flow cells of a CMS sensor chip through its thiol groups using 35 μL PDEA in 50 mM borate buffer, pH 8.3 on the NHS/EDC-activated matrix. Then, 35 μL of HSC70 (100 μg/mL in formate buffer, pH 4.3) were injected until a response of 13,000 response units (RU) corresponding to 13 ng/mm^2 of HSC70 was immobilized. Twenty μL of a 50 mM cysteine/1 M NaCl solution was used to saturate unoccupied sites on the chip. The direct binding measurement of P140 peptides to HSC70 was carried out at 25° C. with a constant flow rate of 20 μL/min. […] The kinetic parameters were calculated using the BIAeval 3.1 software on a personal computer. […]

[2] = Stability of the peptides at 37° C. in 10% mannitol (HPLC peak area); format: physicochemical
Experimental: The stability of the peptide SEQ ID NO: 1 in which the serine at position 10 is phosphorylated and the methionine at position 4 is oxydized (P140(MO)), and the peptide SEQ ID NO: 1 in which the serine at position 10 is phosphorylated (P140) was measured at 37° C., in a solution of 10% (v/v) mannitol. For each peptide, 3 concentrations have been tested: 200, 100 and 50 μg/mL.
At the indicated time, the integrity of P140 and P140(MO) peptides was measured in saline by high-performance liquid chromatography from the area of the peak corresponding to the intact peptide.
Stability is measured by using the HPLC peak surface.

[3] = tested on: MRL/lpr mice; test: Proteinuria analysis in MRL/lpr mice (Albustix); format: in vivo, mouse; conditions: compared to the untreated mice
Experimental: Proteinuria of the above mice was measured in fresh urine using Albustix (Bayer Diagnostics) and was semi-quantitatively estimated according to a […] recommended by the manufacturer (no proteinuria=0; traces=1; 1+=2; 2+=3; 3+=4; 4+=5).
Statistical tests were performed using GraphPad Prism version 5.0. The two-way ANOVA test was used to analyze statistical significance of proteinuria differences between control and peptide-treated groups of mice. Survival of control and P140 analogue-treated female MRL/lpr mice was analyzed by the Kaplan-Meier method, and the significance of differences was determined by the log-rank test. For the other variables, statistical significance was assessed using the Student's t-test. p values less than 0.05 were considered significant.

[4] = tested on: MRL/lpr mice; test: Cellularity analysis of peripheral blood in MRL/lpr mice; format: in vivo, mouse; conditions: 100 μg/100 μL, 5 days after unique injection
Experimental: MRL/lpr mice were injected with 100 μg/100 μL of P140 or P140(MO) and cellularity (preipheral blood) was studied 5 days after this unique injection. The count includes all the leucocytes. In view of the low number of tested mice, a non parametric statistical test has been realised Mann-Whitney).

[5] = tested on: Balb/c mice; test: 15-day ovalbumin-induced airway hypereosinophilia model, BAL cell counts; format: in vivo, mouse; conditions: i.n. or i.v., control mice challenged with saline; no pro-inflammatory effect
Experimental: The anti-inflammatory effect of the P140 phosphopeptide was evaluated when administered locally (intranasally) or systemically (intravenously) in a 15-day model of hypereosinophilic airway inflammation in mice.
The P140 phosphopeptide was solubilized in sterile water (Braun) and 10× concentrate sterile saline was added to adjust osmolarity to 300 mosm. Osmolarity was controlled with a micro osmometer (Loser, type 15) and validated (302 mosm).
The P140 phosphopeptide was used in vivo at the dose of 4 mg/kg by intranasal (i.n.) and intravenous (i.v.) routes. Control animals received equivalent volumes (1 ml/kg for i.n. and 2 ml/kg for i.v.) of saline (Table 6).
Nine-week-old male Balb/c mice were sensitized by intraperitoneal (i.p.) injections of a mixture containing 50 μg OVA (Sigma-Aldrich) and 2 mg alum (Sigma-Aldrich) in 0.1 ml saline. Mice were challenged by i.n. administration of 25 μl of OVA on day 5, then 25 μl of OVA and/or saline on day 12, 13 and 14. […]
BAL was performed twenty-four hours after LPS challenge as described (Daubeuf, F. and Frossard, N. 2012. Performing Bronchoalveolar Lavage in the Mouse. Curr Protoc Mouse Biol 2:167-175). […] The cell pellet was suspended in 500 μl of 0.9% NaCl and used for total cell counts evaluated on a Muse® Cell Analyser. Differential cell counts were assessed by flow cytometry (LSRII® cytometer, BD Bioscience). […]

[6] = tested on: mice; conditions: Monneaux et al., 2003; cited from earlier work

T1 sequence (P19120 whole entry): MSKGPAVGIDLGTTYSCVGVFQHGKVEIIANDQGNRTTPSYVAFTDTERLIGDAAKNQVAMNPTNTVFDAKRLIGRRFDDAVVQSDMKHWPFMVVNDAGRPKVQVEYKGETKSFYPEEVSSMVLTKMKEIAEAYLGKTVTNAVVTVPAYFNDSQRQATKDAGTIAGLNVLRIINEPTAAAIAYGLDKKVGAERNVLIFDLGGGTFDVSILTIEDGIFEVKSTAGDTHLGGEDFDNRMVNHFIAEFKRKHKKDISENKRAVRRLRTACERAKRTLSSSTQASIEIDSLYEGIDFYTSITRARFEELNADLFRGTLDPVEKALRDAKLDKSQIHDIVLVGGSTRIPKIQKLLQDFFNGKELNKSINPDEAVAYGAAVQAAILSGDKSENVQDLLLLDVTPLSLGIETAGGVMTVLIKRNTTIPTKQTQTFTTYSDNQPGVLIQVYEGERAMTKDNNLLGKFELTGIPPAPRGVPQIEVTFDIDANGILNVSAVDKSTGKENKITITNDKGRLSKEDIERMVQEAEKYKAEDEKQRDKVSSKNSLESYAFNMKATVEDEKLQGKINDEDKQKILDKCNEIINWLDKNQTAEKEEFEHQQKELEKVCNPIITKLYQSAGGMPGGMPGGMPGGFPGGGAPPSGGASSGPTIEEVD

| Affinity for HSC70 protein, comparison of oxidized and non-oxidized peptide [1] | Stability (%) Linear equation: coefficient of x (days) ([2]; 50 μg/mL) | Stability (%) Linear equation: constant term ([2]; 50 μg/mL) | Stability (%) Linear equation: coefficient of x (days) ([2]; 100 μg/mL) | Stability (%) Linear equation: constant term ([2]; 100 μg/mL) | Stability (%) Linear equation: constant term ([2]; 200 μg/mL) | Number of cells recovered in BAL fluid as compared to vehicle [5] | Stability (%) Linear equation: coefficient of x (days) ([2]; 200 μg/mL) | Compound | Proteinuria score over time [3] | Peripheral hypercellularity (leucocytes in blood) [4] | Protection against disease development [6] |
| --- | --- | --- | --- | --- | --- | --- | --- | --- | --- | --- | --- |
| not statistically different | y = −0.0064x + | 99.677 | y = −0.0064x + | 100.11 | y = 100 | – | – | CC[C@H](C)[C@H](NC(=O)[C@H](Cc1ccccc1)NC(=O)[C@H](C)NC(=O)[C@H](Cc1ccc(O)cc1)NC(=O)CNC(=O)[C@H](CCCNC(=N)N)NC(=O)[C@@H]1CCCN1C(=O)[C@H](CCCCN)NC(=O)CNC(=O)[C@H](COP(=O)(O)O)NC(=O)[C@H](CCCNC(=N)N)NC(=O)[C@H](CCCCN)NC(=O)[C@H](CO)NC(=O)[C@H](Cc1ccc(O)cc1)NC(=O)[C@@H](NC(=O)[C@H](CC[S+](C)[O-])NC(=O)[C@H](Cc1c[nH]cn1)NC(=O)[C@@H](NC(=O)[C@@H](N)CCCNC(=N)N)[C@@H](C)CC)C(C)C)C(=O)N[C@@H](CCC(=O)O)C(=O)N[C@@H](Cc1ccc(O)cc1)C(=O)O (stereo partly shown) [P140(MO), RIHM(O)VYSKRS(PO3H2)GKPRGYAFIEY] (H-RIH[Met(O)]VYSKR[pS]GKPRGYAFIEY-OH) | less important and appears lately | decrease peripheral hypercellularity | – |
| – | y = −0.099x + | 98.299 | y = −0.0612x + | 99.25 | 99.535 | little effect per se | y = −0.0238x + | CC[C@H](C)[C@H](NC(=O)[C@H](Cc1ccccc1)NC(=O)[C@H](C)NC(=O)[C@H](Cc1ccc(O)cc1)NC(=O)CNC(=O)[C@H](CCCNC(=N)N)NC(=O)[C@@H]1CCCN1C(=O)[C@H](CCCCN)NC(=O)CNC(=O)[C@H](COP(=O)(O)O)NC(=O)[C@H](CCCNC(=N)N)NC(=O)[C@H](CCCCN)NC(=O)[C@H](CO)NC(=O)[C@H](Cc1ccc(O)cc1)NC(=O)[C@@H](NC(=O)[C@H](CCSC)NC(=O)[C@H](Cc1c[nH]cn1)NC(=O)[C@@H](NC(=O)[C@@H](N)CCCNC(=N)N)[C@@H](C)CC)C(C)C)C(=O)N[C@@H](CCC(=O)O)C(=O)N[C@@H](Cc1ccc(O)cc1)C(=O)O [Compound P140] (H-RIHMVYSKR[pS]GKPRGYAFIEY-OH) | – | – | – |
| – | – | – | – | – | – | – | – | non-phosphorylated peptide: non-phosphorylated form of P140, not protective against disease development in mice (RIHMVYSKRSGKPRGYAFIEY; not fully specified; UniProt P08621 131-151, looked up, fragment) | – | – | not protective |
